Test results published in patent US20040259192A1, “Method for cleaving the human growth hormone gh” (priority 2001, published 2004).
“Also recorded” adds a separate entry of the source. Blank lines part the entries; values can stand above or below the compound they belong to. Square brackets hold non-standard residues; d marks the D form. Ends that are not written are not given here. * marks the point of attachment. Sta = CC(C)C[C@H](N)[C@@H](O)CC(=O)O; Isovaleryl = CC(C)CC(=O)*

Legend:
MMP-3 [1] = biological target: MMP-3 (Homo sapiens, UniProt P08254); experiment: activation or inhibition of MMP-3 by substances; assay type: biochemical; set-up: inhibition (MMP-3): dose or concentration left out as unconfirmed; details: for inhibition at 10 µM: with 10 μM
MMP-3 [2] = experiment: cleavage of human GH by MMP-3, SDS-PAGE, with or without protease inhibitors; assay type: biochemical; details: for influence on GH cleavage by MMP-3: inhibitor added in place of phenanthroline, concentration not given
Protocol: (§1) Human GH (SIGMA S-4776) was incubated with the recombinant catalytic domain of MMP-3 or with the activated full-length enzyme MMP-3 (EC 3.4.24.17) at a molar ratio of 50:1 at 37° C. overnight. 100 mM Tris-HCl, pH 7.5/100 mM NaCl/10 mM CaCl2/0.05% (w/v) Brij 35 served as incubation buffer. The following samples served as a control:
1. GH incubated with the same volume of buffer instead of MMP-3,
2. GH incubated with MMP-3 in the presence of 1 mM 1,10-phenanthroline (SIGMA P-9375) as MMP inhibitor.
(§2) The reaction is stopped by the addition of ¼ volume of 5 times reducing Laemmli buffer and incubation at 90° C. for 4 minutes. The samples were subsequently separated on a 15% SDS polyacrylamide gel according to a generally known method. The proteins were prepared by means of coomassie or silver staining.

MMP-9 = MMP-9 (Homo sapiens, UniProt P14780); experiment: cleavage of human GH by MMP-9, SDS-PAGE; assay type: biochemical; details: activated MMP-9; long incubation periods, different enzyme concentrations
Protocol: It was tested in an informing preliminary test whether MMP-9 can cleave human GH in vitro. As shown in Example 2, GH was in this case incubated with activated MMP-9 and subjected to PAA gel electrophoresis. […]
as §1, §2
(§3) In accordance with the method shown in Example 2, other human MMPs were also tested for checking the specificity of the GH cleavage by MMP-3.

MMP-8 = MMP-8 (Homo sapiens, UniProt P22894); experiment: cleavage of human GH by MMP-8, SDS-PAGE; assay type: biochemical; details: method of Example 2
Protocol: as §1, §2, §3

MMP-14 = MMP-14 (Homo sapiens, UniProt P50281); experiment: cleavage of human GH by MMP-14, SDS-PAGE; assay type: biochemical; details: method of Example 2
Protocol: as §1, §2, §3

MMP-2 = biological target: T1, MMP-2 (Homo sapiens, UniProt P08253); experiment: cleavage of human GH by MMP-2; assay type: biochemical
T1 sequence (P08253 110-660): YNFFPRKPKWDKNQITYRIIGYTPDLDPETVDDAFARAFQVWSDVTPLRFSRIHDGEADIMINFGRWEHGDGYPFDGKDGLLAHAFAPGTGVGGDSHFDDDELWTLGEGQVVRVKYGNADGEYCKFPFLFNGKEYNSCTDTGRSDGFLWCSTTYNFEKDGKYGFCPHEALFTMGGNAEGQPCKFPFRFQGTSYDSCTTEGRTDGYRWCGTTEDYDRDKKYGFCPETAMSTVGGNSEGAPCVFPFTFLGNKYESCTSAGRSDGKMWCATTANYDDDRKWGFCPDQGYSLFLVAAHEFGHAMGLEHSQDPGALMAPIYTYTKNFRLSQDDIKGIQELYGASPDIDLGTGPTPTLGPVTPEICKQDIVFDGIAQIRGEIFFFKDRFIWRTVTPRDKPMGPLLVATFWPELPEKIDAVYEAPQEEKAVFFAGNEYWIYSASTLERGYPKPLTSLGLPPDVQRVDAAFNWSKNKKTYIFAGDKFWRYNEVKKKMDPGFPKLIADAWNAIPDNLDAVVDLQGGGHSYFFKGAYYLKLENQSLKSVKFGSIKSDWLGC

[3] = test system: Human microvascular endothelial cells (HUVEC); experiment: proliferation of human microvascular endothelial cells (cell number, Coulter Counter); assay type: cell-based; details: 24 hours
Protocol: Human microvascular endothelial cells (HUVEC) of the 3rd passage were kindly provided by Dr. Jurgen Salvetter (Leipzig University). These cells were prepared according to the information furnished by Norman and Karasek (49). HUVEC were used up to the 9th passage for the proliferation experiments. HUVEC were tested up to confluence in RPMI 1640 medium with additions of 10% (v/v) tested endotoxin-deficient fetal calf serum (Biochrom), 2 mM L-glutamine (GIBCO), 25 μg/ml endothelial cell growth supplement (SIGMA), 50 μg/ml streptomycin plus 50 units/ml penicillin (Life Technologies). The confluent cells were harvested by means of 5% trypsin/0.2% EDTA (BIOCHROM) at 37° C. for 5 minutes. A suspension of 10,000 cells in RPMI 1640 medium plus 2% (v/v) tested endotoxin-deficient fetal calf serum (Biochrom), 2 mM L-glutamine (GIBCO), 50 μg/ml streptomycin plus 50 units/ml penicillin (Life Technologies) were transferred to 24-well plates coated with 30 μg/ml type I collagen from calf skin (IBFB). […] The cells were washed with the same medium after 24 hours of incubation and removed using trypsin/EDTA and the cell number was determined in a Coulter Counter. […]

MMP-3 (Homo sapiens, UniProt P08254), sequence (P08254 100-477): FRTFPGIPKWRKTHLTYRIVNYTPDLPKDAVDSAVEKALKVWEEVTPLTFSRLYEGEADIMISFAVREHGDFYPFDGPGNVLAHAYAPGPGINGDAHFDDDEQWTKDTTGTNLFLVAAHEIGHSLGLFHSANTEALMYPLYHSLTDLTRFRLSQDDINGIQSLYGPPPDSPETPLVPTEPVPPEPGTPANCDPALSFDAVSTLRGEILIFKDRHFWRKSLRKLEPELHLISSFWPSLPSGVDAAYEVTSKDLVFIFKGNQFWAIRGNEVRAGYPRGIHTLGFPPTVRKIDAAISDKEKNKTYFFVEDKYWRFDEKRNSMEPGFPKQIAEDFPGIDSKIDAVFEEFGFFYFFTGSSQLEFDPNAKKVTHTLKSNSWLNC
MMP-9, sequence (P14780 107-707 limits assumed): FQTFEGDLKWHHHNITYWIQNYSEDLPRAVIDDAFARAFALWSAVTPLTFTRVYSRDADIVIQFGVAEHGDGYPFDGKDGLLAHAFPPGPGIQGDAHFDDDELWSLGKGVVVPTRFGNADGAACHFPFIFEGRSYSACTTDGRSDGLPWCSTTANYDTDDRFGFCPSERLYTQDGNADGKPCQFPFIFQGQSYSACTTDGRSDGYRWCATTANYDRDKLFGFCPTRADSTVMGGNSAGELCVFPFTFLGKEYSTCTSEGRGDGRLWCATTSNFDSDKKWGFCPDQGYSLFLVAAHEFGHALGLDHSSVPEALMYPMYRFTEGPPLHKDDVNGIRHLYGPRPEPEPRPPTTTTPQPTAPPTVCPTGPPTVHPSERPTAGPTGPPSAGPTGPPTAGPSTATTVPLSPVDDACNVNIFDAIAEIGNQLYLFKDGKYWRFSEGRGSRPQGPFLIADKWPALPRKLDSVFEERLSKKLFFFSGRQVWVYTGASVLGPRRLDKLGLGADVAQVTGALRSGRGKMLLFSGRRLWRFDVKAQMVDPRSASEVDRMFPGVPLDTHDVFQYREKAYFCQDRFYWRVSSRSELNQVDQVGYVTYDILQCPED
MMP-8, sequence (P22894 101-467): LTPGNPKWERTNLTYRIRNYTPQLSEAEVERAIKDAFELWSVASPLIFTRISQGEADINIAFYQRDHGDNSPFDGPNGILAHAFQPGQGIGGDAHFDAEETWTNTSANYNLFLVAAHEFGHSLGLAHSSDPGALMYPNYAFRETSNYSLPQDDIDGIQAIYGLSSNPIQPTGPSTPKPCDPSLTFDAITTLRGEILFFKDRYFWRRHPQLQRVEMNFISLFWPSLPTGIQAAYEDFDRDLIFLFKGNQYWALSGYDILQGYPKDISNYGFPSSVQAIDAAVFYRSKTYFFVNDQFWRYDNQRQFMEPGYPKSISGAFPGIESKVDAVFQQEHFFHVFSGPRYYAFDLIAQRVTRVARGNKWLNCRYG

- inhibition at 4 µM (MMP-3 [1]; with 4.0 μM): 75%
Compound: O=c1[nH]c(=O)n(CC(S)CS)c2ccccc12 (racemic) [(R,S)-1-(2′,3′-dimercapto-prop-1′-yl)quinazoline-2,4(1H,3H)-dione]

- inhibition at 10 µM (MMP-3 [1]): 50%
Compound: O=c1c2ccccc2nc2n1CC(CS)S2 (racemic) [(R,S)-2-mercaptomethyl-2,3-dihydro-thiazolo[2,3-b]quinazoline-5-one]

- inhibition at 10 µM (MMP-3 [1]): 80%
Compound: O=c1c2ccc(Cl)cc2nc2n1CC(CS)S2 (racemic) [(R,S)-8-chloro-2-mercaptomethyl-2,3-dihydro-thiazolo[2,3-b]quinazoline-5-one]

- activation of MMP-3 (MMP-3 [1]): about 20%
Compound: O=S1(=O)NC(NCCS)=Nc2ccccc21 [3-(2′-mercaptoethylamino)-2H-1,2,4-benzothiadiazine-1,1-dioxide]

- cleavage of GH by MMP-8 (MMP-8): no degrading effect
- cleavage of GH by MMP-14 (MMP-14): no degrading effect
- cleavage of GH by MMP-2 (MMP-2): no, or only minor, degradative effects
Compound: GH: Human GH, 22 kDa peptide hormone composed of a single polypeptide chain (SIGMA S-4776)
- cleavage of GH by MMP-3 (MMP-3 [2]; molar ratio 50:1, 37° C. overnight, pH 7.5): cleaved by MMP-3 into two fragments of 16 kDa and 6 kDa; also recorded: cleaves GH into the typical 16 kDa fragment
- cleavage of GH by MMP-9 (MMP-9): not possible to prove cleavage; also recorded: no degrading effect
- proliferation of HUVEC ([3]; 40 ng/ml): marked proliferative effect

More lines, now with the values behind:

Compound: CC1(CS)Cn2c(nc3ccccc3c2=O)S1 (racemic) [(R,S)-2-mercaptomethyl-2-methyl-2,3-dihydro-thiazolo[2,3-b]quinazoline-5-one]
- inhibition (MMP-3) (MMP-3 [1]): 60%

Compound: CC(C)C[C@H](NC(=O)[C@H]1O[C@@H]1C(=O)O)C(=O)NCCCCN=C(N)N (relative stereo) [E-64, trans-epoxysuccinyl-L-leucylamido-(4-guanidino)butane]
- influence on GH cleavage by MMP-3 (MMP-3 [2]): no influence

Compound: Cn1c(=O)n(CCCS)c(=O)c2ccccc21 [3-(3-mercaptopropyl)-1-methyl-(1H,3H)quinazoline-2,4-dione]
- activation of MMP-3 (MMP-3 [1]): about 20%

Compound: c1cnc2c(c1)ccc1cccnc12 [phenanthroline, 1,10-phenanthroline]
- GH cleavage by MMP-3 in the presence of inhibitor (MMP-3 [2]; 1 mM inhibitor, GH:MMP-3 50:1, 37° C. overnight, pH 7.5): not cleaved

Compound: Isovaleryl-VV[Sta]A[Sta] [pepstatin A]
- influence on GH cleavage by MMP-3 (MMP-3 [2]): no influence

Compound: bFGF: human recombinant bFGF (BIOCHROM), positive control [reference compound]
- proliferation of HUVEC ([3]; 20 ng/ml): stimulates the proliferation
